Consider 3 compounds from US9072712B2, “Synergistic antimicrobial preparations containing chlorite and hydrogen peroxide” (priority 1999, dated 2015).

“Also recorded” adds a separate entry of the source.

The subject of data set [1] is S. haemolyticus keratitis in rabbits. Put plainly: In-vivo clinical efficacy in infectious S. haemolyticus keratitis. Here is the method:
(§1) After 24 hours, all corneas were likewise infected, and the rabbits were divided randomly into three groups. The rabbits (five) of Group I then were treated with the chlorite-hydrogen peroxide formulation defined above as cleaning while wearing contact lenses (here termed “Bactericide”); the rabbits (five) of Group II were treated with commercially available 0.3% ofloxacin antibiotic ophthalmic solution; and the rabbits (two) of Group III were untreated to serve as a control. At 24 and 48 hours post infection, the rabbits underwent visual eye examination, photographic documentation and biomicroscopy. After 24 hours of treatment, three animals each from Groups I and II and one animal from Group III were sacrificed. The eyes were enucleated and an 8 mm disc of cornea was homogenized and plated onto growth media for microbial isolation and quantification. After 48 hours of treatment, the same procedure was followed for the remaining animals.

Data set [2] has the same test system. Description: In-vivo antimicrobial efficacy in infectious S. haemolyticus keratitis (corneal CFU). As for the experimental part:
as §1

Data set [3] relates to antibiotic-resistant strain of pseudomonas aeruginosa. Description: In-vitro antimicrobial effect (log reduction). It is filed as cell-based.
The subject of a further data set is human eye. To be noted: hydrogen peroxide without sodium chlorite (0.01 wt. %); cited from earlier work.
The subject of data set [4] is antibiotic-resistant strain of staphylococcus haemolyticus. Put plainly: In-vitro antimicrobial effect (log reduction). It is filed as cell-based.
A further data set has as its system normal human eyes. To be noted: in the presence of sodium chlorite (400 ppm).
The mark [5] stands for this setting: 24 hours after infection (before treatment).

Description for normal human eyes: Two drops of each formulation were then placed in the cul-de-sac of two normal human eyes. Upon instillation of the drops, the subjects were instructed to close their eyelids.

`CC1COc2c(N3CCN(C)CC3)c(F)cc3c(=O)c(C(=O)O)cn1c23` (stereo not drawn) [0.3% Ofloxacin, ofloxacin]: in data set [1] (setting [5]), the corneal edema score result is “corneal edema (+2)”, the hyperemia score result is “hyperemia (+2)” and the inflammation score result is “inflammation(+2)”. In data set [1] (24 hours after treatment), the corneal edema score entry is given as “corneal edema (+2)”, the hyperemia score result is reported as “hyperemia (+2)” and the inflammation score entry is on record as “inflammation(+2)”. In data set [1] (48 hours after treatment), the corneal edema score result was “corneal edema (+1)”, the hyperemia score result is on record as “hyperemia (+1)” and the inflammation score result was “inflammation(+1)”. Moreover, in data set [2] (24 hours post treatment), the “bacteria isolated from 8 mm disc of cornea, Average” value is recorded as 13,000 CFU and the “bacteria isolated from 8 mm disc of cornea, individual animals” value is “iii) 11,000 CFU; also recorded: i) 23,000 CFU; also recorded: ii) 5,000 CFU”. Besides, in data set [2] (48 hours post treatment), the “bacteria isolated from 8 mm disc of cornea, Average” value is 5,100 CFU and the “bacteria isolated from 8 mm disc of cornea, individual animals” value was “i) 5,000 CFU; also recorded: ii) 5,200 CFU”.
Consider `OO` [H202 alone, hydrogen peroxide], for which the “Log Reduction” value is recorded as 0.01 in data set [3] (200 ppm, 1 hour); 0.54 in data set [3] (200 ppm, 2 hours); 0.20 in data set [4] (200 ppm, 1 hour); 0.23 in data set [4] (200 ppm, 2 hours). The “upper limit of human ocular tolerability” value with human eye is “about 100 ppm”. Besides, in the data set on normal human eyes, the “hydrogen peroxide levels very well tolerated by human eyes” value is given as “up to 500 ppm”.
As to sodium chlorite [NaClO2 alone], the “Log Reduction” value in data set [3] (400 ppm, 1 hour) worked out at 0.351; in data set [3] (400 ppm, 1 hour, listed as sodium chlorite), 0.35; in data set [3] (400 ppm, 2 hours), 1.35; in data set [4] (400 ppm, 1 hour), 0.11; in data set [4] (400 ppm, 2 hours), 1.01.
